From US8586755B2, “Substituted nicotinamides as KCNQ2/3 modulators” (Grünenthal GmbH, priority 2009, dated 2013)

Biological target: T1, KCNQ2/3 channels (Homo sapiens, UniProt O43525+O43526)
T1 construct: expressed in transfected cells
Experiment: Fluorescence assay using a voltage sensitive dye (fluorimetry)
Type: cell-based
Settings: CHO-K1 cells expressing KCNQ2/3 channels; for EC50: agonistic activity; for Emax / Fluorimetry % efficacy (retigabine 50 μM = 100%): retigabine 50 μM = 100%; for Emax: read-out: Fluorimetry % efficacy (retigabine 50 μM = 100%)
Outline: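 CHO-K1 cells expressing human KCNQ2/3, loaded 45 min with red membrane-potential dye in ES buffer pH 7.4 (1 mM KCl), compound 30 min at room temperature. Fluorescence (525/560 nm) read before (F1) and at peak after KCl to 92 mM final (F2); agonism from F2/F1 change, EC50 fitted.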

O=C(NCc1cccnc1)c1cccnc1SCCCc1ccc(F)cc1 [compound 127, 2-[3-(4-Fluorophenyl)-propylsulfanyl]-N-(pyridin-3-yl-methyl)-pyridine-3-carboxylic acid amide]
EC50: 1860 nM
Emax: 147%

O=C(NCc1ccccn1)c1cccnc1SCCCc1ccc(F)cc1 [compound 143]
EC50: 1510 nM
Fluorimetry % efficacy (retigabine 50 μM = 100%): 175%

O=C(NCC1CCCCC1)c1cccnc1CCCS(=O)(=O)c1ccccc1 [compound 8, 2-[3-(Benzenesulfonyl)-propyl]-N-(cyclohexyl-methyl)-pyridine-3-carboxylic acid amide]
Emax: 37%

O=C(NCc1cccs1)c1cccnc1CCCCc1ccc(F)cc1 [compound 22, 2-[4-(4-Fluorophenyl)-butyl]-N-(thiophen-2-yl-methyl)-pyridine-3-carboxylic acid amide]
EC50: 2350 nM
Emax: 150%

O=C(NCc1cccs1)c1cccnc1SCCCc1ccccn1 [compound 111, 2-(3-Pyridin-2-yl-propylsulfanyl)-N-(thiophen-2-yl-methyl)-pyridine-3-carboxylic acid amide]
EC50: 11100 nM
Emax: 61%

CN1CCOc2ccc(CNC(=O)c3cccnc3SCCCc3ccc(F)cc3)cc21 [compound 162, 2-[3-(4-Fluorophenyl)-propylsulfanyl]-N-[(4-methyl-3,4-dihydro-2H-[1,4]benzoxazin-6-yl)-methyl]-pyridine-3-carboxylic acid amide]
EC50: 166 nM
Emax: 83%

CCCCNC(=O)c1cccnc1SCCCc1ccc(F)cc1 [compound 97, N-Butyl-2-[3-(4-fluorophenyl)-propylsulfanyl]-pyridine-3-carboxylic acid amide]
EC50: 134 nM
Emax: 196%

O=C(NCC1CC2CCC1C2)c1cccnc1SCCC(O)c1ccc(F)cc1 (centres unmarked) [compound 50]
EC50: 1490 nM
Fluorimetry % efficacy (retigabine 50 μM = 100%): 169%

CC(C)(C)CCNC(=O)c1cccnc1SCCCc1ccc(F)cc1 [compound 42]
EC50: 128 nM
Fluorimetry % efficacy (retigabine 50 μM = 100%): 164%

O=C(NCC1CCCCC1)c1cccnc1CCCCc1ccccc1 [compound 9, N-(Cyclohexyl-methyl)-2-(4-phenyl-butyl)-pyridine-3-carboxylic acid amide]
EC50: 1350 nM
Emax: 157%

Cc1cccc(CCNC(=O)c2cccnc2SCCCc2ccc(F)cc2)c1 [compound 85, 2-[3-(4-Fluorophenyl)-propylsulfanyl]-N-[2-(m-tolyl)-ethyl]-pyridine-3-carboxylic acid amide]
EC50: 394 nM
Emax: 59%

O=C(NCc1ccc(F)c(F)c1)c1cccnc1SCCCc1ccc(F)cc1 [compound 71, N-[(3,4-Difluoro-phenyl)-methyl]-2-[3-(4-fluorophenyl)-propylsulfanyl]-pyridine-3-carboxylic acid amide]
EC50: 72 nM
Emax: 107%

O=C(NCc1cccs1)c1cccnc1SCCCc1ccsc1 [compound 106, N-(Thiophen-2-yl-methyl)-2-(3-thiophen-3-yl-propylsulfanyl)-pyridine-3-carboxylic acid amide]
EC50: 191 nM
Emax: 95%

O=C(NCC1CC2CCC1C2)c1cccnc1SCCCc1ccc(F)c(F)c1 (centres unmarked) [compound 60, N-(5-Bicyclo[2.2.1]heptanyl-methyl)-2-[3-(3,4-difluoro-phenyl)-propylsulfanyl]-pyridine-3-carboxylic acid amide]
EC50: 263 nM
Emax: 236%

COC(=O)c1cccc(CNC(=O)c2cccnc2SCCCc2ccc(F)cc2)c1 [compound 129, 3-[[[2-[3-(4-Fluorophenyl)-propylsulfanyl]-pyridine-3-carbonyl]amino]-methyl]-benzoic acid methyl ester]
EC50: 325 nM
Emax: 122%

O=C(CCSc1ncccc1C(=O)NCC1CC2CCC1C2)c1ccc(F)cc1 (centres unmarked) [compound 43, N-(5-Bicyclo[2.2.1]heptanyl-methyl)-2-[[3-(4-fluorophenyl)-3-oxo-propyl]sulfanyl]-pyridine-3-carboxylic acid amide]
EC50: 896 nM
Emax: 46%

O=C(NCc1cccs1)c1cccnc1CCCCc1ccccc1 [compound 7, 2-(4-Phenyl-butyl)-N-(thiophen-2-yl-methyl)-pyridine-3-carboxylic acid amide]
Emax: 91%

O=C(NCC1CC2CCC1C2)c1cccnc1SCCCc1ccccc1 (centres unmarked) [compound 33, N-(5-Bicyclo[2.2.1]heptanyl-methyl)-2-(3-phenyl-propylsulfanyl)-pyridine-3-carboxylic acid amide]
EC50: 451 nM
Emax: 242%

O=C(NCC1CC2CCC1C2)c1cccnc1CCCSc1ccc(F)cc1 (centres unmarked) [compound 30, N-(5-Bicyclo[2.2.1]heptanyl-methyl)-2-[3-[(4-fluorophenyl)sulfanyl]-propyl]-pyridine-3-carboxylic acid amide]
EC50: 630 nM
Emax: 261%

O=C(NCc1ccc(F)cc1O)c1cccnc1SCCCc1ccc(F)cc1 [compound 173, N-[(4-Fluoro-2-hydroxy-phenyl)-methyl]-2-[3-(4-fluorophenyl)-propylsulfanyl]-pyridine-3-carboxylic acid amide]
EC50: 156 nM
Emax: 185%

O=C(NCc1nccs1)c1cccnc1SCCCc1ccc(F)cc1 [compound 144, 2-[3-(4-Fluorophenyl)-propylsulfanyl]-N-(thiazol-2-yl-methyl)-pyridine-3-carboxylic acid amide]
EC50: 815 nM
Emax: 215%

O=C(NCc1ccccc1)c1cccnc1SCCCc1ccc(F)cc1 [compound 66, N-Benzyl-2-[3-(4-fluorophenyl)-propylsulfanyl]-pyridine-3-carboxylic acid amide]
EC50: 50 nM
Emax: 121%

O=C(NCc1cccc(-c2ccncc2)c1)c1cccnc1SCCCc1ccc(F)cc1 [compound 159, 2-[3-(4-Fluorophenyl)-propylsulfanyl]-N-[(3-pyridin-4-yl-phenyl)-methyl]-pyridine-3-carboxylic acid amide]
EC50: 670 nM
Emax: 113%

Cc1ccc(CCNC(=O)c2cccnc2SCCCc2ccc(F)cc2)cc1 [compound 90, 2-[3-(4-Fluorophenyl)-propylsulfanyl]-N-[2-(p-tolyl)-ethyl]-pyridine-3-carboxylic acid amide]
Emax: 37%

O=C(NCC1CC2CCC1C2)c1cccnc1SCCCc1ccc(Cl)cc1 (centres unmarked) [compound 35, N-(5-Bicyclo[2.2.1]heptanyl-methyl)-2-[3-(4-chlorophenyl)-propylsulfanyl]-pyridine-3-carboxylic acid amide]
EC50: 242 nM
Emax: 221%

O=C(NCC1CC2CCC1C2)c1cccnc1CCCCc1cccc(C(F)(F)F)c1 (centres unmarked) [compound 26, N-(5-Bicyclo[2.2.1]heptanyl-methyl)-2-[4-[3-(trifluoromethyl)phenyl]-butyl]-pyridine-3-carboxylic acid amide]
EC50: 126 nM
Emax: 244%

O=C(NCc1cccs1)c1cccnc1SCCCc1ccc(F)cc1 [compound 17]
EC50: 128 nM
Fluorimetry % efficacy (retigabine 50 μM = 100%): 176%

O=C(NCCC(F)(F)F)c1cccnc1SCCCc1ccc(F)cc1 [compound 48, 2-[3-(4-Fluorophenyl)-propylsulfanyl]-N-(3,3,3-trifluoro-propyl)-pyridine-3-carboxylic acid amide]
EC50: 148 nM
Emax: 183%
